# Laboratory results from article PMC7216583 (Parasites & Vectors, 2020).
# Where a name gives a salt, the structure may show the parent alone.
# Tested on: Toxoplasma gondii RH-2F tachyzoites
# Test: microbe, parasite or virus in culture
# Details: 72 h, read-out: Parasite inhibition (%) mean
row,SMILES,inhibition of growth at 5 µM
1,CC(C)NCC(O)COc1ccc(CCOCC2CC2)cc1 (centres unmarked) [Betaxolol (Betoptic)],9.5%
2,Cc1cc2c(F)c(Oc3ncnn4cc(OC[C@@H](C)O)c(C)c34)ccc2[nH]1 [Brivanib (BMS-540215)],49.8%
3,C#Cc1cccc(Nc2ncnc3cc(OC)c(OCCCCCCC(=O)NO)cc23)c1 [CUDC-101],46.2%
4,C/C=C(\C)C(=O)N[C@@H](c1ccccc1)[C@@H](O)C(=O)O[C@H]1C[C@@]2(O)[C@@H](OC(=O)c3ccccc3)[C@@H]3[C@]4(OC(C)=O)CO[C@@H]4C[C@H](O)[C@@]3(C)C(=O)[C@H](OC(C)=O)C(=C1C)C2(C)C [Cephalomannine],22.4%
5,COC(=O)[C@H](c1ccccc1Cl)N1CCc2sccc2C1 [Clopidogrel (Plavix)],-0.4%

# Same assay, conditions: 72 h, read-out: Parasite inhibition (%) mean, preliminary screen of compound library, mean
row,SMILES,inhibition of growth at 5 µM
1,N[C@@H]1CCCCN(c2c(F)cc3c(=O)c(C(=O)O)cn(C4CC4)c3c2Cl)C1 [Besifloxacin HCl (Besivance)],39.1%
2,C[C@H]1C[C@H]2[C@@H]3CCC4=CC(=O)C=C[C@]4(C)[C@@H]3C(=O)C[C@]2(C)[C@]1(O)C(=O)CO [Betapar (Meprednisone)],0.9%
3,CCNC(=O)CCC/C=C\C[C@@H]1[C@@H](/C=C/[C@@H](O)CCc2ccccc2)[C@H](O)C[C@@H]1O [Bimatoprost],9%
4,CN(Cc1ccc(C(C)(C)C)cc1)Cc1cccc2ccccc12 [Butenafine HCl],7.5%
5,CC[C@H](Nc1ncnc2[nH]cnc12)c1nc2cccc(F)c2c(=O)n1-c1ccccc1 [CAL-101 (GS-1101)],47.8%
6,CCc1cc2c(cc1N1CCC(N3CCOCC3)CC1)C(C)(C)c1[nH]c3cc(C#N)ccc3c1C2=O [CH5424802],46.1%
7,COc1cc2ncnc(-n3nc(-c4ccccn4)nc3N)c2cc1OC [CP-466722],2.5%
8,O=C(O)CCCCC(CCSCc1ccccc1)SCc1ccccc1 (centres unmarked) [CPI-613],31.1%
9,O=C(O)c1ccc2c(c1)nc(Nc1cccc(Cl)c1)c1ccncc12 [CX-4945 (Silmitasertib)],1.5%
10,CO[C@H]1C(=O)[C@@]2(C)[C@H]([C@@H](OC(=O)c3ccccc3)[C@@]3(O)C[C@H](OC(=O)[C@H](O)[C@@H](NC(=O)OC(C)(C)C)c4ccccc4)C(C)=C1C3(C)C)[C@]1(OC(C)=O)CO[C@@H]1C[C@H]2OC [Cabazitaxel (Jevtana)],2.3%
11,Nc1nc(=O)c2c([nH]1)NC[C@H](CNc1ccc(C(=O)N[C@@H](CCC(=O)O)C(=O)O)cc1)N2C=O [Calcium levofolinate (Calcium Folinate)],0.1%
12,CN1C2=CC(=O)/C(=N\NC(N)=O)C=C2CC1S(=O)(=O)O (centres unmarked) [Carbazochrome sodium sulfonate],1.2%
13,CO/N=C(\C(=O)N[C@@H]1C(=O)N2C(C(=O)OCOC(=O)C(C)(C)C)=C(/C=C\c3scnc3C)CS[C@H]12)c1csc(N)n1 [Cefditoren pivoxil],0.2%
14,CO/N=C(\C(=O)N[C@@H]1C(=O)N2C(C(=O)O)=C(Cn3ccc(=N)n3CCO)CS[C@H]12)c1csc(N)n1 [Cefoselis sulfate],12.1%
15,Cc1cc(C2CCCCC2)n(O)c(=O)c1 [Ciclopirox (Penlac)],33.4%
16,COc1cc(/C=C/C(=O)N2CCN(CC(=O)N3CCCC3)CC2)cc(OC)c1OC [Cinepazide maleate],1.5%
17,Cc1onc(-c2ccccc2Cl)c1C(=O)N[C@@H]1C(=O)N2[C@@H](C(=O)O)C(C)(C)S[C@@H]12 [Cloxacillin sodium (Cloxacap)],0.2%
18,CC(C)c1nc(CN(C)C(=O)N[C@@H](CCN2CCOCC2)C(=O)N[C@H](CC[C@H](Cc2ccccc2)NC(=O)OCc2cncs2)Cc2ccccc2)cs1 [Cobicistat (GS-9350)],0.8%
19,Cc1nc2c([nH]1)-c1ccccc1N(C(=O)c1ccc(NC(=O)c3ccccc3-c3ccccc3)cc1)CC2 [Conivaptan HCl (Vaprisol)],6.6%
20,CC(=O)OCC(=O)[C@]1(O)CC[C@H]2[C@@H]3CCC4=CC(=O)CC[C@]4(C)[C@@H]3C(=O)C[C@@]21C [Cortisone acetate (Cortone)],44.8%
21,N#CCNC(=O)c1ccc(-c2ccnc(Nc3ccc(N4CCOCC4)cc3)n2)cc1 [Cyt387],28.9%
22,OC[C@@H](O)[C@@H](O)[C@H](O)[C@H](O)CO [D-Mannitol (Osmitrol)],0.2%
23,CNC(=O)c1cc(Oc2ccc(NC(=O)Nc3cc(C(C)(C)C)nn3-c3ccc4ncccc4c3)c(F)c2)ccn1 [DCC-2036 (Rebastinib)],25.5%
24,CN(C)[C@@H](CCOc1cccc2ccccc12)c1ccccc1 [Dapoxetine hydrochloride (Priligy)],-0.2%
25,O=C(O)c1ccc(-n2nc(-c3ccccc3O)nc2-c2ccccc2O)cc1 [Deferasirox (Exjade)],-0.6%
26,O=C[C@H](O)[C@@H](O)[C@H](O)[C@H](O)CO [Dextrose (D-glucose)],-33.7%
27,CCCCOc1cc(C(=O)NCCN(CC)CC)c2ccccc2n1 [Dibucaine (Cinchocaine) HCl],8.9%
28,O=C(O)Cc1ccccc1Nc1c(Cl)cccc1Cl [Diclofenac Diethylamine],-21.2%
29,COc1ccc([C@@H]2Sc3ccccc3N(CCN(C)C)C(=O)[C@@H]2OC(C)=O)cc1 [Diltiazem HCl (Tiazac)],-15.8%

# Same assay, conditions: 72 h, read-out: Parasite inhibition (%) mean, preliminary screen, mean
row,SMILES,inhibition of growth at 5 µM
1,CCN(CCO)CCCOc1ccc2c(Nc3cc(CC(=O)Nc4cccc(F)c4)n[nH]3)ncnc2c1 [Barasertib (AZD1152-HQPA)],54.4%
2,O=C(/C=C/c1cccc(S(=O)(=O)Nc2ccccc2)c1)NO [Belinostat (PXD101)],65.8%
3,CCNC(=O)[C@H]1O[C@@H](n2cnc3c(N)nc(NCCc4ccc(CCC(=O)O)cc4)nc32)[C@@H](O)[C@@H]1O [CGS 21680 HCl],0.9%
4,O=C(NOCC1CC1)c1ccc(F)c(F)c1Nc1ccc(I)cc1Cl [CI-1040 (PD184352)],0.4%
5,CCOC(=O)[C@H](CCc1ccccc1)N[C@H]1CCCN2CCC[C@H](C(=O)O)N2C1=O [Cilazapril monohydrate (Inhibace)],11.9%
6,COc1ccc(C[C@@H]2c3cc(OC)c(OC)cc3CC[N@+]2(C)CCC(=O)OCCCCCOC(=O)CC[N@@+]2(C)CCc3cc(OC)c(OC)cc3[C@H]2Cc2ccc(OC)c(OC)c2)cc1OC [Cisatracurium besylate (Nimbex)],4.5%
7,CCCC(=O)OCOC(=O)C1=C(C)NC(C)=C(C(=O)OC)C1c1cccc(Cl)c1Cl (centres unmarked) [Cleviprex (Clevidipine)],23.8%
8,Cc1ccc2c(=O)c3cccc(CC(=O)O)c3oc2c1C [DMXAA (ASA404)],-33.6%
9,CN(C)/N=N/c1[nH]cnc1C(N)=O [Dacarbazine (DTIC-Dome)],5.8%
10,CN(C)[C@@H](CCOc1cccc2ccccc12)c1ccccc1 [Dapoxetine HCl (Priligy)],0.8%
11,Cc1nc(Nc2ncc(C(=O)Nc3c(C)cccc3Cl)s2)cc(N2CCN(CCO)CC2)n1 [Dasatinib (BMS-354825)],10.5%
12,Cc1cccc(Cc2c[nH]cn2)c1C [Detomidine HCl],60.4%
13,C[C@]12CCC3=C4CCC(=O)C=C4CC[C@H]3[C@@H]1CC[C@@]2(O)CC#N [Dienogest],12%
